Results published in US20250127696A1, “COMPOSITION FOR PREVENTING OR IMPROVING SKIN-AGING CONTAINING A THYMOL ESTER-BASED COMPOUND” (AMOREPACIFIC CORPORATION, priority 2023, published 2025).

Assays:
Assay type in all cases: cell-based, human
melanocytes [1] = assay: Predicted transcriptome age (RNA-age) of melanocytes; details: 10 ppm, 24 hours, vs untreated control; RNAAgeCalc on FPKM data, skin tissue; FIG. 2
Description: (§1) Melanocytes were purchased from Cascade Biologics as cells cultured in the foreskin of newborn African-American males, and cultured using Medium254 medium mixed with human melanocyte growth supplement (Life technologies).
RNA was extracted from melanocytes treated with 10 ppm of Melasolv for 24 hours using TRIzol reagent (Life technologies). This RNA was used to prepare a library using the Illumina TruSeq Stranded Total RNA Library Prep kit (Illumina, San Diego, CA, USA), and then RNA-sequencing was performed using the NovaSeq 6000 platform (Illumina).
Thereafter, a model for predicting age based on approximately 16,000 gene expression values of RNA-seq data was applied to measure the RNA-age of the untreated control melanocytes (—in the graph of FIG. 2) and the RNA-age of the melanocytes treated with Melasolv. Specifically, the RNA-age used RNAAgeCalc package, which can calculate transcriptome age from RNAseq data. Among the transcriptome data, FPKM data was entered as input and skin tissue was entered as an argument for calculation. • (RNAAgeCalc pakage: https://bioconductor.org/packages/release/bioc/html/RNAAgeCalc.html, • Ren X, Kuan P F (2020). “A multi-tissue transcriptional age calculators.” PLOS ONE, 15(8),-20. doi: 10.1371/journal.pone.0237006)

melanocytes [2] = assay: Observation of cell morphology after UVB-induced senescence; details: UVB 5 mJ/cm^2 twice at 24-hour intervals, then treated and incubated 2 weeks; FIG. 3
Description: as §1
Melanocytes were irradiated with 5 mJ/cm^2 of UVB twice at 24-hour intervals using a 1 UVB UV irradiator (Bio-Sun), and then treated with Melasolv and incubated for 2 weeks. A photograph of the cells is taken using an optical microscope (ECLIPSE TS100 from NIKON), and the shape of the cells is examined. Referring to FIG. 3, when treated with ultraviolet (UVB) that induce cellular senescence (Chr UVB; Chronic UVB in FIG. 3), it could be confirmed that the skin cells were flattened or enlarged, as shown by three spots that were slightly larger than the others in the middle of the photograph.

[3] = tested on: β-galactosidase in melanocytes; assay: beta-galactosidase assay (senescence staining) after UVB; details: UVB 5 mJ/cm^2 twice at 24-hour intervals, then treated and incubated 2 weeks; vs UVB only; FIG. 4
Description: as §1
Melanocytes were irradiated with 5 mJ/cm^2 of UVB twice at 24-hour intervals using a 1 UVB UV irradiator (Bio-Sun), and then treated with Melasolv and incubated for 2 weeks. To measure the degree of cellular senescence, a beta-galactosidase assay was performed using a beta-gal staining kit from Life technologies. A photograph was taken using an optical microscope (ECLIPSE TS100 from NIKON), and then the number of cells with stained beta-galactosidase was counted.

## COc1cc(/C=C/C(=O)Oc2cc(C)ccc2C(C)C)cc(OC)c1OC [Melasolv, (5-methyl-2-propan-2-ylphenyl) (E)-3-(3,4,5-trimethoxyphenyl) prop-2-enoate]
Melanocytes [1]
  decrease of RNA-age of melanocytes: about 4 years
Melanocytes [2]
  change in cell morphology (flattened or enlarged cells): reduces changes in skin cells caused by UVB
[3]
  β-galactosidase (number of stained cells): reduced to a statistically significant degree
